Experimental data from patent publication US5405760A, “Process for producing recombinant McrBC endonuclease and cleavage of methylated DNA” (New England Biolabs, Inc., priority 1992, dated 1995).
Read-outs that look alike come from different tables or passages of the source.

Assays:
McrBC = target: T1, McrBC (Escherichia coli, UniProt P15005); experiment: McrBC cleavage of pBR322.AluI with titration of nucleotides; assay type: biochemical; conditions: for inhibition of McrBC reaction: in the presence of GTP (0.5 mM), analogue 5.0 to 0.04 mM; for support of cleavage of the substrate by nucleotide: nucleotides tested at 1 mM
T1 construct: made in house; host or cells: Escherichia coli BL21(DE3)/pER273 (McrBL) and BL21(DE3)/pER276 (McrC)
T1 sequence (P15005 1-459): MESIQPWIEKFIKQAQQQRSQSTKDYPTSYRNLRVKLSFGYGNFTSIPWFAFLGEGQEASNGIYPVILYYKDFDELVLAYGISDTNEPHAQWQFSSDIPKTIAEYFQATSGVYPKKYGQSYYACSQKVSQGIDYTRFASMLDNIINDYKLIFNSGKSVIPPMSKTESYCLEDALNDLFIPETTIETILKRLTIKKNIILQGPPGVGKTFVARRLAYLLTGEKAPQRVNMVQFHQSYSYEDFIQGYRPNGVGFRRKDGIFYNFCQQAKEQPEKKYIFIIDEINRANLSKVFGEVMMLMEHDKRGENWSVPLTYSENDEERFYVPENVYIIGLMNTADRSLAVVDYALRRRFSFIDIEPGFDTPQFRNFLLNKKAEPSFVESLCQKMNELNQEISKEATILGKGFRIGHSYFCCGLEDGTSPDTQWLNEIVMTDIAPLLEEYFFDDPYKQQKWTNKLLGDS
Method: The optimal buffer composition for both components of McrBC tested was 10 mM Tris-Cl, 10 mM magnesium chloride, 1 mM GTP (pH 7.5 at 25° C.).
McrBC activity depends on the presence of GTP. […] McrBL Fraction IV and McrC Fraction Va (EXAMPLE I), were used, such that each reaction in each series contained 8 pmol McrBL, 8 pmol of McrC (combined activity on the same day of 5 units) and 0.07 pmol of pBR322.AluI in the presence of decreasing concentrations of nucleotides. Mixtures were made up without McrBL and without nucleotide; nucleotide was added to the first tube in the series; the samples were serially diluted in a manner similar to that described in EXAMPLE I and II; and reactions were begun by addition of McrBL and transfer to 37° C.

[1] = Properties of the McrBC cleavage reaction (pH, ratio of components); assay type: biochemical; conditions: higher or lower ratios reduce cleavage activity
Description: (a) pH optimum: Activity is detectable when the pH of the reaction is lowered to about 5.8.
Higher or lower ratios reduce cleavage activity.

[2] = test system: McrBC (chromosomal wild-type operon) (Escherichia coli K-12); experiment: cell_activity; conditions: methylated by M.HaeII in vivo; in vivo restriction; abolished by McrBS plasmid
[3] = pH 7.5, read-out: relative activity

Molecule: Nc1ncnc2c1ncn2[C@@H]1O[C@H](COP(=O)(O)OP(=O)(O)NP(=O)(O)O)[C@@H](O)[C@H]1O [AMP-PNP]
- inhibition of McrBC reaction (McrBC): did not inhibit McrBC
- inhibition of McrBC at high concentrations (McrBC; near 10 mM): partial inhibition

Molecule: Nc1ncnc2c1ncn2[C@@H]1O[C@H](COP(=O)(O)OP(=O)(O)OP(O)(O)=S)[C@@H](O)[C@H]1O [ATP-gamma-S]
- inhibition of McrBC reaction (McrBC): did not inhibit the enzyme

Molecule: Nc1ncnc2c1ncn2[C@@H]1O[C@H](COP(=O)(O)OP(=O)(O)OP(=O)(O)O)[C@@H](O)[C@H]1O [ATP]
- concentration at which inhibition of McrBC activity began (McrBC; 0.5 mM GTP (equimolar)): 0.5 mM
- inhibition of McrBC reaction (McrBC): inhibited the reaction
- activity at 620 µM (McrBC; [3]): 25%
- activity at 1250 µM (McrBC; [3]): < 10%
- activity at 2500 µM (McrBC; [3]): < 1%

Molecule: Nc1nc2c(ncn2[C@@H]2O[C@H](COP(=O)(O)OP(=O)(O)O)[C@@H](O)[C@H]2O)c(=O)[nH]1 [GDP]
- support of cleavage of the substrate by nucleotide (McrBC): Neither GDP or GMP supported cleavage

Molecule: Nc1nc2c(ncn2[C@@H]2O[C@H](COP(=O)(O)OP(=O)(O)NP(=O)(O)O)[C@@H](O)[C@H]2O)c(=O)[nH]1 [GMP-PNP]
- inhibition of the GTP-supported reaction (McrBC; 5 mM analogue, 0.5 mM GTP): partial inhibition
- activity at 1250 µM (McrBC; pH 7.5, 0.5 mM GTP and 1.25 mM GMP-PNP, read-out: relative activity): 50%
- activity at 5000 µM (McrBC; pH 7.5, 0.5 mM GTP and 5 mM GMP-PNP, read-out: relative activity): < 10%

Molecule: Nc1nc2c(ncn2[C@@H]2O[C@H](COP(=O)(O)O)[C@@H](O)[C@H]2O)c(=O)[nH]1 [GMP]
- support of cleavage of the substrate by nucleotide (McrBC): Neither GDP or GMP supported cleavage

Molecule: Nc1nc2c(ncn2[C@@H]2O[C@H](COP(=O)(O)OP(=O)(O)OP(O)(O)=S)[C@@H](O)[C@H]2O)c(=O)[nH]1 [GTP-gamma-S]
- relative activity (McrBC; 0.5 mM GTP and as little as 0.04 mM GTP-gamma-S): no activity was detectable
- inhibition of McrBC reaction (McrBC): completely inhibit

Molecule: Nc1nc2c(ncn2[C@@H]2O[C@H](COP(=O)(O)OP(=O)(O)OP(=O)(O)O)[C@@H](O)[C@H]2O)c(=O)[nH]1 [GTP]
- activity at 620 µM (McrBC; 0.62 mM GTP, 10 mM Tris-Cl, 10 mM magnesium chloride, pH 7.5, read-out: relative activity): 100%
- support of the reaction by GTP alone (McrBC; 2.5 mM GTP): supported the reaction normally
- effect of high levels of GTP on the enzyme (McrBC; 5 mM GTP): inhibit the enzyme
- GTP concentration at which cleavage can be detected (McrBC; lane h, lowest concentration): 40 nM
- activity at 40 µM (McrBC; pH 7.5, 0.04 mM GTP, same buffer, read-out: relative activity): ≤ 10%
- activity at 310 µM (McrBC; pH 7.5, 0.31 mM GTP, same buffer, read-out: relative activity): 50%

Molecule: McrB: large polypeptide product of the mcrB gene, component of McrBC
- Optimal ratio of McrB to McrC [1]: between one and ten molecules of McrB per molecule of McrC

Molecule: phage lambda modified by M.HaeII
- activity (fold reduction in plaques) [2]: 33

B1: McrC: component of McrBC endonuclease, product of the mcrC gene (protein, UniProt P15006 1-348, looked up)
Type IV methyl-directed …: MEQPVIPVRNIYYMLTYAWGYLQEIKQANLEAIPGNNLLDILGYVLNKGVLQLSRRGLELDYNPNTEIIPGIKGRIEFAKTIRGFHLNHGKTVSTFDMLNEDTLANRIIKSTLAILIKHEKLNSTIRDEARSLYRKLPGISTLHLTPQHFSYLNGGKNTRYYKFVISVCKFIVNNSIPGQNKGHYRFYDFERNEKEMSLLYQKFLYEFCRRELTSANTTRSYLKWDASSISDQSLNLLPRMETDITIRSSEKILIVDAKYYKSIFSRRMGTEKFHSQNLYQLMNYLWSLKPENGENIGGLLIYPHVDTAVKHRYKINGFDIGLCTVNLGQEWPCIHQELLDIFDEYLK
- Optimal ratio of McrC to sites [1]: between one and six molecules of McrC per cleavable site
